Results as given in paper PMC5702617, “Novel peptide probes to assess the tensional state of fibronectin fibers in cancer” (Nature Communications, 2017).
Where “and” joins values, the source holds several entries; their conditions need not be identical. Equal values may be shown once. Residues, ends and D or L forms follow the SMILES beside them. No end group written: not given here. *: point of attachment. X1 = O=C(O)CN1CCN(CC(=O)O)CCN(C(CCC(=O)NCCN2C(=O)CC(*)C2=O)C(=O)O)CC1

What was measured:
[1] = In vitro plasma stability; type: in vitro ADME, human; conditions: 37°C, 1 hour time point, RP-HPLC, means from three experiments
Protocol: The stability of peptides in blood is often limited as they are rapidly cleaved by catalytic enzymes found in tissue and blood, resulting in a short biological half-life. […] To verify whether the FnBPA5 peptide can be used for in vivo applications, we next performed a plasma stability test. The metabolic stability of the peptide radiotracer ^111In-FnBPA5 was tested in vitro by incubating the radiolabeled FnBPA5 at 37°C with human blood plasma, or water as control. The unbound peptide fraction was separated from the plasma proteins at different time points (0, 1, 24, 48, and 72 h) and was analyzed by reversed-phase high-pressure liquid chromatography (RP-HPLC).
After that, the samples were filtrated using a Thomson Single StEP Filter vial 0.45 μm PVDF (Thomson Instrument Company, Oceanside, USA) and the supernatant was analyzed by reversed-phase HPLC (Varian Prostar HPLC System, SpectraLab Scientific Inc., Canada) using a D-Bio Discovery Wide Pore C18 column (25 cm × 4.6 mm; 5 μm).

[2] = Biodistribution in PC-3 tumor grafted mice; type: in vivo, mouse; conditions: female, CD1 nude, mouse, in vivo, iv, total radioactivity; 1 h p.i.; PC-3 grafted mice, i.v. 150 kBq (2.4 nmol, 100 µL PBS), γ counter, mean ± SD, n = 4; read-out: Biodistribution, Kidneys
Protocol: (§1) Experiments were performed 3–4 weeks after inoculation.
(§2) For the biodistribution experiments, PC-3 tumor grafted mice were injected into the tail vein with 150 kBq ^111In-FnBPA5 or ^111In-scrambled FnBPA5 (2.4 nmol, 100 µL PBS). For each peptide, groups of four mice were sacrificed at 1, 4, 24, and 96 h post injection. Blocking experiment (n = 4) was performed by injection of an excess of peptide (100 µg, 24 nmol in 100 µL PBS) directly before the administration of the corresponding radiolabeled peptide. The organs were collected, weighed and counted for activity with a γ counter (Packard Cobra II Auto, Gamma, PerkinElmer AG, Schwerzenbach, Switzerland) 4 h p.i. The results were expressed as a percentage of injected activity per gram of tissue (% IA per g tissue). The Student's t test analyses were considered as type 3 (two sample unequal variance) and statistical significance was assumed for p-values smaller than 0.05.

PC-3-bearing mice [3] = experiment: Biodistribution in PC-3 tumor grafted mice; type: in vivo, mouse; conditions: PC-3 grafted mice, i.v. 150 kBq (2.4 nmol, 100 µL PBS), γ counter, mean ± SD, n = 4
Protocol: as §1, §2

PC-3-bearing mice [4] = experiment: In vivo blocking experiment in PC-3 tumor grafted mice; design: species or system mouse; conditions: n = 4
Protocol: as §2

PC-3-bearing mice [5] = experiment: SPECT/CT imaging of PC-3-bearing mice; type: in vivo, mouse
Protocol: Thirty-three days from the inoculation of the tumor cells, the mice were intravenously injected with ~15 MBq ^111In-FnBPA5 resp. ^111In-scrambled FnBPA5-NODAGA (2.4 nmol, 100 µL PBS) into the tail vein. […] The images were reconstituted and processed with InVivoScope® software (Bioscan Inc., Washington DC, USA).

[6] = target: fibronectin N-terminal fragments (Homo sapiens) (UniProt P02751); conditions: cited from earlier work
Sequence of fibronectin N-terminal fragments (Homo sapiens) (P02751 50-273): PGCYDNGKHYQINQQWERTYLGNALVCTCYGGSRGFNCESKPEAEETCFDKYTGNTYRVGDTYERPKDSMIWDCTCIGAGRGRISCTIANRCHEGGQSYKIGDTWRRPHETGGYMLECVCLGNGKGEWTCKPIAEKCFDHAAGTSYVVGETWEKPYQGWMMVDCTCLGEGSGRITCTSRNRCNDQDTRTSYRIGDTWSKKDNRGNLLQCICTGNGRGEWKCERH

[7] = target: Fn fibers in PC-3 xenograft tumor tissue of CD1 nude mice (not stated (human PC-3 xenograft in CD1 nude mouse)) (UniProt P11276)
Sequence of Fn fibers in PC-3 xenograft tumor tissue of CD1 nude mice (not stated (human PC-3 xenograft in CD1 nude mouse)) (P11276 33-2477): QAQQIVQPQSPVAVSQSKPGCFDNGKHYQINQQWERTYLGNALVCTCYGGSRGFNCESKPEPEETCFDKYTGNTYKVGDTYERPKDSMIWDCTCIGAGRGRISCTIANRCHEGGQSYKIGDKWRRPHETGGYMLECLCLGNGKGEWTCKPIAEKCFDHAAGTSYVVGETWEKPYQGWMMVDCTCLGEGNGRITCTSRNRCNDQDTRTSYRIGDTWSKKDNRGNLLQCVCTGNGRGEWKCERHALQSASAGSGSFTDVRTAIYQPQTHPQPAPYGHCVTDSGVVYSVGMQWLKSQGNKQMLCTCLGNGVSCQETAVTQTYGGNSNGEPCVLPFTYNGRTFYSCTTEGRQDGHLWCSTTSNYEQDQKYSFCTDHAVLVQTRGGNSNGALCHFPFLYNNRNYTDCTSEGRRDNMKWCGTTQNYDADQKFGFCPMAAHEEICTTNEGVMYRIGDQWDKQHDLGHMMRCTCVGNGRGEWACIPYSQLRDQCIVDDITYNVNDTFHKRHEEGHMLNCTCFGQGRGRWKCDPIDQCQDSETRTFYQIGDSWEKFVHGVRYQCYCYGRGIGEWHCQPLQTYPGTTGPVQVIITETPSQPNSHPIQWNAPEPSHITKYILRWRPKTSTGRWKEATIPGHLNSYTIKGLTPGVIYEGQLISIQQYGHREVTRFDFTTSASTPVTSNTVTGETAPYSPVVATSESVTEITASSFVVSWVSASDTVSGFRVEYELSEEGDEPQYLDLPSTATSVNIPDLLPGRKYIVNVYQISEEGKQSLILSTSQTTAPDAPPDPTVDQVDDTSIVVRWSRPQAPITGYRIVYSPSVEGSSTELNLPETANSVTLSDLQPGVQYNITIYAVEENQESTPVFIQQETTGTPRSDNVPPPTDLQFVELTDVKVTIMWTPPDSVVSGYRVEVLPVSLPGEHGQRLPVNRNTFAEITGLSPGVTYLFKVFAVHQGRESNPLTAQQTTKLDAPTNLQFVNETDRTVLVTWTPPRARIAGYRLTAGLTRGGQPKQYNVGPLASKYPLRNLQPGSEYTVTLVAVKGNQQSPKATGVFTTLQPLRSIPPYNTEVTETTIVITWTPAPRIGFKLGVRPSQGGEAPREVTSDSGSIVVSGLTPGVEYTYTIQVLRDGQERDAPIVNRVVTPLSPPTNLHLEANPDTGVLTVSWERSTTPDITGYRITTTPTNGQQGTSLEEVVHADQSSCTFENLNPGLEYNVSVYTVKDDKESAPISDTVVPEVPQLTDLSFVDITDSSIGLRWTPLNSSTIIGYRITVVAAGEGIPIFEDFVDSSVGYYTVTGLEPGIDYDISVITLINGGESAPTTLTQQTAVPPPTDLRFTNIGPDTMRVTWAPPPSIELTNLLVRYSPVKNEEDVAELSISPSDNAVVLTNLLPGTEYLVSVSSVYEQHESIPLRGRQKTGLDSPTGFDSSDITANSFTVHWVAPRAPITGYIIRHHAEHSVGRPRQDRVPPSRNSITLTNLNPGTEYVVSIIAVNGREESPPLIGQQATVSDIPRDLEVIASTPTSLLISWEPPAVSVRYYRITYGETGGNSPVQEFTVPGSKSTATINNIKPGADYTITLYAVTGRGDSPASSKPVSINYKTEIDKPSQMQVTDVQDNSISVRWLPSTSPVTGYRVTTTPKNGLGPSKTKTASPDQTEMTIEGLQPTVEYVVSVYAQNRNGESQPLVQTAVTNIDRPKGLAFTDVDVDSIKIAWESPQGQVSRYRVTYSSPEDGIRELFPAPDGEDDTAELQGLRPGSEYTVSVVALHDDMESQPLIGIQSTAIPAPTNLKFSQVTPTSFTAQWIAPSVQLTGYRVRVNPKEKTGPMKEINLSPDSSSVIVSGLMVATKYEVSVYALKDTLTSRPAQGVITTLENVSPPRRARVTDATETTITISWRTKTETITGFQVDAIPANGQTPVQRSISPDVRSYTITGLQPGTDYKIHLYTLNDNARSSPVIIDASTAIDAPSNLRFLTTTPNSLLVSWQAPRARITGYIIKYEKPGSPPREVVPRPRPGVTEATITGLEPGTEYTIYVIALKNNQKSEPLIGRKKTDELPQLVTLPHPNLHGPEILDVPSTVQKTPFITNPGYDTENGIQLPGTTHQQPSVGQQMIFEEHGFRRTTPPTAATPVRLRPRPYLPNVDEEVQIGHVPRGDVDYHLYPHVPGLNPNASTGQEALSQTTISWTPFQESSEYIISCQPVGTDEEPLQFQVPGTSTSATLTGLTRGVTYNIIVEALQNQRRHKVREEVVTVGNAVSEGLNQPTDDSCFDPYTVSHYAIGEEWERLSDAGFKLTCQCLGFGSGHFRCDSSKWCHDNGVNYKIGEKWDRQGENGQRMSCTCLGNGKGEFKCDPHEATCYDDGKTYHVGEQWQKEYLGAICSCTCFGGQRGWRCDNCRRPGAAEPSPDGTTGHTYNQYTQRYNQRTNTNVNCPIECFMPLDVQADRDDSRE

[8] = target: Fn fibers in PC-3 xenograft tumor tissue of CD1 nude mice (not stated (human PC-3 xenograft in CD1 nude mouse)) (UniProt P11276); remark: listed apart in the source
[9] = target: T1, fibronectin isolated from human plasma (human, UniProt P02751 32-2477, in the fibers 5% of the protein was Cy5-labeled (Cy5-maleimide on the cryptic cysteines at FnIII7 and FnIII15)); experiment: fluorescence polarisation; anisotropy titration; 100 nM Alexa-488 labeled peptide in PBS, Fn titrated from 0 to 1.4 μM, 20 °C; one-site-binding model; three independent measurements; conditions: both partners purified
[10] = target: T1, fibronectin isolated from human plasma; experiment: single Fn fiber binding assay (confocal microscopy, intensity ratio peptide-Alexa488 / Fn-Cy5); Fn fibers (95% unlabeled, 5% Cy5-labeled) manually pulled onto a silicone sheet and relaxed to about 7% strain; blocked with BSA; varying concentrations of peptide for 1 h, washed, imaged; ratio at 10 μM set to 1; conditions: both partners purified
[11] = 4h p.i. blocking: corresponding unlabeled peptide (24 nmol) i.v. directly before the radiolabeled peptide, PC-3 grafted mice, mean ± SD

Sequence of FnBPA5 (P14738 636-672): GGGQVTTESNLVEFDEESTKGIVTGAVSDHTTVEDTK

## CC[C@H](C)[C@H](NC(=O)[C@@H](NC(=O)[C@H](CCC(=O)O)NC(=O)CNC(=O)[C@H](Cc1ccccc1)NC(=O)[C@H](CC(=O)O)NC(=O)[C@@H](NC(=O)[C@H](CCCCN)NC(=O)[C@@H](NC(=O)CNC(=O)[C@@H](NC(=O)[C@H](CC(C)C)NC(=O)[C@H](CC(=O)O)NC(=O)[C@H](CCC(=O)O)NC(=O)[C@H](CCC(N)=O)NC(=O)[C@H](CCC(=O)O)NC(=O)[C@H](CO)NC(=O)CNC(=O)[C@@H](N)CSC1CC(=O)N(CCNC(=O)CCC(C(=O)O)N2CCN(CC(=O)O)CCN(CC(=O)O)CC2)C1=O)[C@@H](C)O)[C@@H](C)O)C(C)C)[C@@H](C)O)C(=O)N[C@H](C(=O)N[C@H](C(=O)N[C@@H](CC(N)=O)C(=O)N[C@@H](CCC(=O)O)C(=O)N[C@@H](C)C(=O)N[C@H](C(=O)N[C@@H](CCC(=O)O)C(=O)N[C@H](C(=O)N[C@H](C(=O)N[C@H](C(=O)N[C@@H](CO)C(=O)NCC(=O)N[C@@H](CO)C(=O)N[C@H](C(=O)N[C@@H](Cc1c[nH]cn1)C(=O)NCC(=O)N[C@H](C(=O)N[C@@H](CCCCN)C(=O)N[C@H](C(=O)O)C(C)C)[C@@H](C)O)[C@@H](C)O)[C@@H](C)O)C(C)C)[C@@H](C)O)[C@@H](C)O)C(C)C)C(C)C (stereo partly drawn) [111In-scrambled FnBPA5, metal not drawn] (H-C(X1)GSEQEDLTGTKVDFGETIVVNEATETVTSGSTHGTKV-OH; N-terminus and C-terminus assumed)
[1]
  stability in human blood plasma: high stability
[2]
  tissue uptake at 1 h: 163 ± 18 %ID/g
PC-3-bearing mice [3]; 1 h p.i.
  Biodistribution, Blood: 0.26 ± 0.064 IA% / g
  Biodistribution, Bone: 0.15 ± 0.035 IA% / g
  Biodistribution, Heart: 0.12 ± 0.03 IA% / g
  Biodistribution, Intestines: 0.09 ± 0.01 IA% / g
  Biodistribution, Kidneys: 163.70 ± 18.90 IA% / g
  Biodistribution, Liver: 0.10 ± 0.02 IA% / g
  Biodistribution, Lung: 0.19 ± 0.03 IA% / g
  Biodistribution, Muscle: 0.09 ± 0.025 IA% / g
  Biodistribution, Pancreas: 0.78 ± 0.295 IA% / g
  Biodistribution, Spleen: 0.21 ± 0.039 IA% / g
  Biodistribution, Stomach: 0.12 ± 0.013 IA% / g
  Biodistribution, Tumor: 0.27 ± 0.08 IA% / g
PC-3-bearing mice [3]; 4 h p.i.
  Biodistribution, Blood: 0.07 ± 0.008 IA% / g and 0.07 ± 0.01 IA% / g
  Biodistribution, Bone: 0.10 ± 0.01 IA% / g
  Biodistribution, Heart: 0.06 ± 0.006 IA% / g
  Biodistribution, Intestines: 0.04 ± 0.012 IA% / g and 0.04 ± 0.01 IA% / g
  Biodistribution, Kidneys: 151.43 ± 9.056 IA% / g and 151.43 ± 9.06 IA% / g
  Biodistribution, Liver: 0.08 ± 0.026 IA% / g and 0.08 ± 0.03 IA% / g
  Biodistribution, Lung: 0.08 ± 0.005 IA% / g and 0.08 ± 0.01 IA% / g
  Biodistribution, Muscle: 0.04 ± 0.019 IA% / g and 0.04 ± 0.02 IA% / g
  Biodistribution, Pancreas: 0.64 ± 0.549 IA% / g and 0.64 ± 0.55 IA% / g
  Biodistribution, Spleen: 0.13 ± 0.036 IA% / g and 0.13 ± 0.03 IA% / g
  Biodistribution, Stomach: 0.06 ± 0.006 IA% / g
  Biodistribution, Tumor: 0.14 ± 0.02 IA% / g
PC-3-bearing mice [3]; 24 h p.i.
  Biodistribution, Blood: 0.04 ± 0.005 IA% / g
  Biodistribution, Bone: 0.09 ± 0.021 IA% / g
  Biodistribution, Heart: 0.04 ± 0.005 IA% / g
  Biodistribution, Intestines: 0.03 ± 0.00 IA% / g
  Biodistribution, Kidneys: 104.62 ± 9.412 IA% / g
  Biodistribution, Liver: 0.07 ± 0.010 IA% / g
  Biodistribution, Lung: 0.05 ± 0.006 IA% / g
  Biodistribution, Muscle: 0.08 ± 0.026 IA% / g
  Biodistribution, Pancreas: 0.21 ± 0.162 IA% / g
  Biodistribution, Spleen: 0.14 ± 0.048 IA% / g
  Biodistribution, Stomach: 0.04 ± 0.017 IA% / g
  Biodistribution, Tumor: 0.09 ± 0.01 IA% / g
PC-3-bearing mice [3]; 96 h p.i.
  Biodistribution, Blood: 0.02 ± 0.005 IA% / g
  Biodistribution, Bone: 0.13 ± 0.036 IA% / g
  Biodistribution, Heart: 0.04 ± 0.005 IA% / g
  Biodistribution, Intestines: 0.02 ± 0.010 IA% / g
  Biodistribution, Kidneys: 23.63 ± 9.883 IA% / g
  Biodistribution, Liver: 0.05 ± 0.005 IA% / g
  Biodistribution, Lung: 0.04 ± 0.014 IA% / g
  Biodistribution, Muscle: 0.04 ± 0.013 IA% / g
  Biodistribution, Pancreas: 0.06 ± 0.016 IA% / g
  Biodistribution, Spleen: 0.10 ± 0.029 IA% / g
  Biodistribution, Stomach: 0.04 ± 0.029 IA% / g
  Biodistribution, Tumor: 0.16 ± 0.08 IA% / g
PC-3-bearing mice [4]; 24 nmol unlabeled peptide pre-injected, 4 h p.i., Student's t test
  effect of pre-injection of unlabeled peptide on accumulation: no significant differences
PC-3-bearing mice [4]; [11]
  Biodistribution with blocking, Blood: 0.07 ± 0.01 IA% / g
  Biodistribution with blocking, Intestines: 0.07 ± 0.05 IA% / g
  Biodistribution with blocking, Kidneys: 128.81 ± 17.44 IA% / g
  Biodistribution with blocking, Liver: 0.08 ± 0.01 IA% / g
  Biodistribution with blocking, Lung: 0.10 ±0.03 IA% / g
  Biodistribution with blocking, Muscle: 0.04 ± 0.00 IA% / g
  Biodistribution with blocking, Pancreas: 1.41 ±1.25 IA% / g
  Biodistribution with blocking, Spleen: 0.18 ± 0.03 IA% / g
  Biodistribution with blocking, Stomach: 0.08 ± 0.04 IA% / g
  Biodistribution with blocking, Tumor: 0.14 ± 0.04 IA% / g
PC-3-bearing mice [5]; ~15 MBq (2.4 nmol, 100 µL PBS) i.v., up to 96 h p.i.
  SPECT/CT distribution: mainly accumulated in the kidneys
PC-3-bearing mice [5]; ~15 MBq i.v., 96 h p.i., post mortem, kidneys removed
  SPECT/CT distribution after kidney removal: no uptake was visible

## FnBPA5 (from UniProt P14738)
[6]
  Kd: 44.2 nM

## ^natIn-FnBPA5 (cold labeled) / ^111In-FnBPA5 (peptide)
[7]
  tumor uptake of ^111In-FnBPA5 in PC-3-bearing mice, biodistribution at 1, 4, 24 and 96 h p.i. (maximum at 1 h p.i.): 4.74 % IA per g
[8]
  change of ^111In-FnBPA5 uptake in the liver 4 h p.i. after pre-injection of a 10-fold excess of unlabeled FnBPA5 (24 nmol): -58.2%
  change of ^111In-FnBPA5 uptake in the tumor 4 h p.i. after pre-injection of a 10-fold excess of unlabeled FnBPA5 (24 nmol): -35.6%

## {C(Alexa488)}-GQVTTESNLVEFDEESTKGIVTGAVSDHTTVEDTK [FnBPA5-Alexa488]
[9]
  Kd: 75 nM
[10]
  Kd: 28 nM
